The target of assay [1] is Epidermal growth factor receptor (Homo sapiens, UniProt P00533). Description: Inhibition of autophosphorylation of His6-tagged EGFR cytoplasmic domain (unknown origin) expressed in Sf9 cells by DELFIA time resolved fluorometry. Type of assay: cell-based.
Assay [2] concerns MCF7. Briefly: cells. Type of assay: functional, cell-based. To be noted: Homo sapiens, MCF7, 48 h.
Description: Antiproliferative activity against Homo sapiens (human) MCF-7 cells overexpressing EGFR assessed as inhibition of cell survival after 48 hr by MTT assay

For 15 compounds, IC50 results are on record in ChEMBL document CHEMBL3046969, “Synthesis, structure, and biological assay of cinnamic amides as potential EGFR kinase inhibitors” (Med Chem Res, 2013).

Sequence of Epidermal growth factor receptor (P00533 whole entry, the tested form may be a part): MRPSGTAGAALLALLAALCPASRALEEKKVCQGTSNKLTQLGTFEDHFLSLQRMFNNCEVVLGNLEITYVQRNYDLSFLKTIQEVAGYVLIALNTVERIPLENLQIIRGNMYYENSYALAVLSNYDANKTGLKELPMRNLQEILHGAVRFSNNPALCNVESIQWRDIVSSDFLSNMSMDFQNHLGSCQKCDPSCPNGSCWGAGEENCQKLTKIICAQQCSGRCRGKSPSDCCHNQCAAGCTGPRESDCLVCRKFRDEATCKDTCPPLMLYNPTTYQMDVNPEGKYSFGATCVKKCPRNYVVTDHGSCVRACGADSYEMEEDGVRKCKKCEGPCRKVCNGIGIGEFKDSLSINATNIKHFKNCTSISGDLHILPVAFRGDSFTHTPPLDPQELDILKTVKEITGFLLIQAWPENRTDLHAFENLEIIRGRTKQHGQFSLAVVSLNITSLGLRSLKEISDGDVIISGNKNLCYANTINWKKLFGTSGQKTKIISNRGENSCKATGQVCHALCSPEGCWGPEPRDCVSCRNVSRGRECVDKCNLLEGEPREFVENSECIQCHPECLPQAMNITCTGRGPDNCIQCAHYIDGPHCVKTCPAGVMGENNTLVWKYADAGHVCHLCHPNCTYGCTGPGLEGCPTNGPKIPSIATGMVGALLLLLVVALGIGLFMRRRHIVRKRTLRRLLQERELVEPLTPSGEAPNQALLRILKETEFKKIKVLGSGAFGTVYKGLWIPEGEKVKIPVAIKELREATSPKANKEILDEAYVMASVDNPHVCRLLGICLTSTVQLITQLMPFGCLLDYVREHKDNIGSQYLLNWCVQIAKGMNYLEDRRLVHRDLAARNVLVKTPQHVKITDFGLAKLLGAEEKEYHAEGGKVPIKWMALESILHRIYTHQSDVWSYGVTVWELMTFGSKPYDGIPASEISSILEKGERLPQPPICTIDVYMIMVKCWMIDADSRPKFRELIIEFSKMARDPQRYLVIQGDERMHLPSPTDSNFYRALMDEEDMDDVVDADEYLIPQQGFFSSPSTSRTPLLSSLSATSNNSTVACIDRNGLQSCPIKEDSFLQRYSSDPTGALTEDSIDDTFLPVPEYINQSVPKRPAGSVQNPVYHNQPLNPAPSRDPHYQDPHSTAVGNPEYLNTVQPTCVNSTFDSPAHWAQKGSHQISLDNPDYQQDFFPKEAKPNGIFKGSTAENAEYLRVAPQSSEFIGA

`Cc1ccc(NC(=O)/C=C/c2ccccc2)cc1` [N-P-TOLYLCINNAMAMIDE]: the results for the IC50 in assay [1] and in assay [2] were 12.7 µM and 3.26 µM, respectively.
In the same order, the values of `O=C(/C=C/c1ccccc1)Nc1cc(F)cc(F)c1` are 13.2 µM and 4.65 µM.
On to `O=C(/C=C/c1ccccc1)Nc1ccccc1Br`, for which the IC50 in assay [1] was determined as 15.7 µM; in assay [2], 4.05 µM.
For `CC(C)c1ccc(NC(=O)/C=C/c2ccccc2)cc1`, the values for the IC50 in assay [1] and in assay [2] were 14.6 µM and 5.39 µM, respectively.
For `Cc1ccccc1NC(=O)/C=C/c1ccccc1` [N-O-TOLYLCINNAMAMIDE], the half-inhibitory concentration (IC50) was 12.3 µM in assay [1] and 3.17 µM in assay [2].
Consider `O=C(/C=C/c1ccccc1)Nc1cc(F)c(F)c(F)c1`, for which the IC50 in assay [1] turned out to be 12.9 µM; in assay [2], 2.89 µM.
`CCOc1ccccc1NC(=O)/C=C/c1ccccc1`: the values for the IC50 in assay [1] and in assay [2] were 9.35 µM and 2.43 µM, respectively.
For `Cc1cccc(NC(=O)/C=C/c2ccccc2)c1` [N-M-TOLYLCINNAMAMIDE] the same measures were 19.7 µM and 5.83 µM.
For `O=C(/C=C/c1ccccc1)Nc1cc(Cl)cc(Cl)c1` the same measures were 13.9 µM and 4.47 µM.
For `CCOc1ccc(NC(=O)/C=C/c2ccccc2)cc1` the same measures were 10.2 µM and 3.3 µM.
For the compound `CC(C)(C)NC(=O)/C=C/c1ccccc1` [N-TERT-BUTYLCINNAMAMIDE], the values for the IC50 in assay [1] and in assay [2] were 29.8 µM and 11.1 µM, respectively.
In the same order, the values of `O=C(/C=C/c1ccccc1)Nc1ccc(F)cc1F` are 11.7 µM and 4.14 µM.
Compound `C#Cc1cccc(Nc2ncnc3cc(OCCOC)c(OCCOC)cc23)c1` [ERLOTINIB] gave an IC50 in assay [2] of 0.22 µM.
With `CCCCCCCCCCCCNC(=O)/C=C/c1ccccc1` [N-DODECYLCINNAMAMIDE], the concentration for half-maximal inhibition (IC50) worked out at 38.5 µM in assay [1] and 13.4 µM in assay [2].
For `O=C(/C=C/c1ccccc1)Nc1ccc(Cl)cc1Cl`, the concentration for half-maximal inhibition (IC50) came to 16.2 µM in assay [1] and 4 µM in assay [2].
